This passage reports EC50 results from US20230075856A1, “CYCLIC SULFAMIDE COMPOUNDS FOR TREATMENT OF HBV” (Assembly Biosciences, Inc., priority 2018, published 2023).

As a reminder, the EC50 is the concentration at which the effect is half-maximal.

The structures appear in SMILES notation. Where only a bound is given, the exact number is not on record here.

In one experiment the test system is HBV viral load production from HepAD38 cells. The experiment in a line: Viral production from HepAD38 cells: viral load in supernatant by qPCR of the HBV core sequence. The class given is cell-based. As to conditions: 5 days incubation, qPCR of supernatant HBV DNA vs DMSO control, read-out: viral load lowering EC50 (Activity). As to the method:
Assay Measuring Activity of Test Compounds on Viral Production from HepAD38 Cells
HepAD38 cells grown in a T-150 flask (Corning, cat #: 430825) with Growth Medium (DMEM/F12 […] (Hyclone, cat #: SH30023.02), 1× Pen/Strep (Invitrogen, cat #: 15140-122), 10% FBS (Tissue Culture Biologics, cat #: 101), […] G418 (Alfa Aesar, cat #: J62671), 1 μg/mL Tetracycline (Teknova, cat #: T3320)) were detached with 0.25% trypsin-EDTA (Invitrogen, cat #: 25200-056). Tetracycline-free treatment medium (15 mL DMEM/F12 (1:1) 1× Pen/step, with 2% FBS, Tet-system approved (Clontech, cat #: 631106) were then added to mix, transferred into a 50 ml conical tube (Falcon, cat #: 21008-918,) and spun at 1300 rpm for 5 min. Pelleted cells were then re-suspended/washed with 50 mL of 1×DPBS (Invitrogen, cat #: 14190-136) 2 times and 50 mL treatment medium twice. HepAD38 cells were then re-suspended with 10 mL of treatment medium, syringed and counted. Wells of 96-well clear bottom TC plate (Corning, cat #: 3904,) were seeded at 50,000 cells/well in 180 μL of treatment medium, and 20 μL of either 10% DMSO (Sigma, cat #: D4540) as controls or a 10× solution of test compounds in 10% DMSO in treatment media was added for a final compound concentration starting at 10 μM, and plates were incubated in 5% CO2 incubator at 37° C. for 5 days.
Subsequently viral load production was assayed by quantitative PCR (qPCR) of the HBV core sequence. PCR reaction mixture containing forward primers HBV-f 5′-CTGTGCCTTGGGTGGCTIT-3′ (IDT DNA), Reverse primers HBV-r 5′-[…]-3′ (IDT DNA), Fluorescent TaqMan™ Probes HBV-probe 5′-FAM/AGCTCCAAA/ZEN/[…]/3IABkFQ-3′ (IDT DNA), 10 μL/well of PerfeCTa® qPCR ToughMix® (Quanta Biosciences, Cat #: 95114-05K), and 6 μL/well of DEPC water (Alfa Aesar, cat #: J62087) was prepared. Four μL of supernatant was added to 16 μL of the reaction mixture in a qPCR plate (Applied Biosytems, Cat #: 4309849), sealed with a film (Applied Biosystems, Cat #: 4311971), centrifuged for a few seconds, and subsequently run on an Applied Biosystems VIIA7. The PCR mixture was incubated at 45° C. for 5 min, then 95° C. for 10 min, followed by 40 cycles of 10 seconds at 95° C. and 20 seconds at 60° C. Viral load was quantified against known HBV DNA standards by using ViiA™ 7 Software. Viral load in the supernatant from wells with treated cells were compared against viral load in supernatant from DMSO control wells (≥3 per plate). Cell viability assay was performed with CellTiter-Glo Luminescent Cell Viability Assay (Promega, cat #: G7573) with modification. Mixed appropriate amount of CellTiter-Glo (CTG) 1×DPBS in a 1:1 ratio, added 100 uL of the mixture to each well followed completely removal of all supernatant in each well without touching cell surface. Incubated the plate at room temperature for 10 min on an orbital shaker, and then read the plate with a plate reader (TECAN M1000 or Envision). EC50 or CC50 values were calculated through curve-fitting of the four-parameter nonlinear-logistic-regression model (GraphPad Prism or Dotmatics). CC50 values were all >10 μM.
Take `Cc1nc(-c2ccccn2)sc1CNC(=O)C1CC(C(=O)Nc2ccc(F)c(Cl)c2)N(C)S(=O)(=O)N1` (single isomer, unassigned) [1065-ISOMER-B, N3-(3-chloro-4-fluoro-phenyl)-2-methyl-N5-[[4-methyl-2-(2-pyridyl)thiazol-5-yl]methyl]-1,1-dioxo-1,2,6-thiadiazinane-3,5-dicarboxamide]: the EC50 was below 50 nM.

`CN1C(C(=O)Nc2ccc(F)c(Cl)c2)CC(C(=O)NCc2ccccc2)NS1(=O)=O` (single isomer, unassigned) [Compound 718-ISOMER-B, N5-benzyl-N3-(3-chloro-4-fluorophenyl)-2-methyl-1,1-dioxo-1,2,6-thiadiazinane-3,5-dicarboxamide]: the EC50 lay within 100 to 10000 nM.

As to `CN1C(C(=O)Nc2ccc(F)c(Cl)c2)CC(C(=O)NCc2cc(-c3ccc(F)cc3)nn2C)NS1(=O)=O` (single isomer, unassigned) [1143-ISOMER-B, N3-(3-chloro-4-fluoro-phenyl)-N5-[[5-(4-fluorophenyl)-2-methyl-pyrazol-3-yl]methyl]-2-methyl-1,1-dioxo-1,2,6-thiadiazinane-3,5-dicarboxamide], the EC50 is below 50 nM.

Take `COC(=O)N1CCC(NC(=O)C2CC(C(=O)Nc3ccc(F)c(Cl)c3)N(CC(F)(F)F)S(=O)(=O)N2)CC1` (single isomer, unassigned; isomer-b) [Compound 893-ISOMER-B, methyl 4-[[5-[(3-chloro-4-fluroo-phenyl)carbamoyl]-1,1-dioxo-6-(2,2,2-trifluoroethyl)-1,2,6-thiadiazinane-3-carbonyl]amino]piperidine-1-carboxylate]: the EC50 fell in the range of 100 to 10000 nM.

As to `Cc1nc(-c2ccc(OCCN3CCCCC3)cc2)sc1CNC(=O)C1CC(C(=O)Nc2ccc(F)c(Cl)c2)N(C)S(=O)(=O)N1` (single isomer, unassigned) [1087-ISOMER-B, N3-(3-chloro-4-fluoro-phenyl)-2-methyl-N5-[[4-methyl-2-[4-[2-(1-piperidyl)ethoxy]phenyl]thiazol-5-yl]methyl]-1,1-dioxo-1,2,6-thiadiazinane-3,5-dicarboxamide], the EC50 lay in the range of 50 to 100 nM.

Turning to `CN1C(C(=O)Nc2ccc(F)c(Cl)c2)CC(C(=O)NC2CCCc3nc(-c4ccc(OCCN5CCCCC5)cc4)sc32)NS1(=O)=O` (single isomer, unassigned; isomer-d) [Compound 948-ISOMER-D], the EC50 was below 50 nM.

The experiment is the same for the next values; noted with them: Hepatitis B virus, HePAD38, 120 h, 5 days incubation, qPCR of supernatant HBV DNA vs DMSO control, read-out: viral load lowering EC50 (Activity).
With `COc1ccc2nc(CNC(=O)C3CC(C(=O)Nc4ccc(F)c(Cl)c4)N(C)S(=O)(=O)N3)sc2c1` (single isomer, unassigned) [1011-ISOMER-B, N3-(3-Chloro-4-fluoro-phenyl)-N5-[(6-methoxy-1,3-benzothiazol-2-yl)methyl]-2-methyl-1,1-dioxo-1,2,6-thiadiazinane-3,5-dicarboxamide], the EC50 is below 50 nM.

`CN1C(C(=O)Nc2ccc(F)c(Cl)c2)CC(C(=O)NCc2cccc(Cl)c2)NS1(=O)=O` (single isomer, unassigned) [Compound 730-ISOMER-A, N3-(3-chloro-4-fluoro-phenyl)-N5-[(3-chlorophenyl)methyl]-2-methyl-1,1-dioxo-1,2,6-thiadiazinane-3,5-dicarboxamide]: the EC50 was below 50 nM.

Consider `CN1C(C(=O)Nc2ccc(F)c(Cl)c2)CC(C(=O)NC2CCCc3nc(-c4ccccc4Cl)sc32)NS1(=O)=O` (centres unmarked) [Compound 1018], for which the EC50 was below 50 nM.

For the compound `Cc1nc(-c2ccccc2F)sc1CNC(=O)C1CC(C(=O)Nc2ccc(F)c(Cl)c2)N(C)S(=O)(=O)N1` (centres unmarked) [Compound 1016], the EC50 is below 50 nM.

For the compound `Cc1nc(-c2ccccc2F)sc1[C@H](NC(=O)C1CC(C(=O)Nc2ccc(F)c(Cl)c2)N(C)S(=O)(=O)N1)c1ccccc1` (single isomer, unassigned) [1101-ISOMER-C], the EC50 was in the range of 100 to 10000 nM.

Take `CC(NC(=O)C1CC(C(=O)Nc2ccc(F)c(Cl)c2)N(C)S(=O)(=O)N1)c1ccccn1` (centres unmarked) [Compound 736]: the EC50 is 50 to 100 nM.

Regarding `CN1C(C(=O)Nc2ccc(F)c(Cl)c2)CC(C(=O)NCc2cnc(-c3ccc(O)cc3Cl)s2)NS1(=O)=O` (centres unmarked) [Compound 1028], the EC50 is below 50 nM.

Regarding `CN1C(C(=O)Nc2ccc(F)c(Cl)c2)CC(C(=O)NCc2ccn(-c3ccccc3)n2)NS1(=O)=O` (single isomer, unassigned) [Compound 991-ISOMER-A, N3-(3-chloro-4-fluoro-phenyl)-2-methyl-1,1-dioxo-N5-[(1-phenylpyrazol-3-yl)methyl]-1,2,6-thiadiazinane-3,5-dicarboxamide], the EC50 is 100 to 10000 nM.

In the case of `CN1C(C(=O)Nc2ccc(F)c(Cl)c2)CC(C(=O)NCCc2ccccc2)NS1(=O)=O` (centres unmarked) [Compound 732], the EC50 is 100 to 10000 nM.

`Cc1cn(-c2ccccc2)nc1CNC(=O)C1CC(C(=O)Nc2ccc(F)c(C#N)c2)N(C)S(=O)(=O)N1` (centres unmarked) [Compound 1134]: the EC50 was below 50 nM.

On to `CN1C(C(=O)Nc2ccc(F)c(Cl)c2)CC(C(=O)NC2CCN(S(=O)(=O)C(F)(F)F)CC2)NS1(=O)=O` (centres unmarked) [Compound 856], for which the EC50 lay within 100 to 10000 nM.

As for `Cc1csc(CNC(=O)C2CC(C(=O)Nc3ccc(F)c(Cl)c3)N(C)S(=O)(=O)N2)n1` (single isomer, unassigned) [Compound 686-ISOMER-A, N3-(3-chloro-4-fluoro-phenyl)-2-methyl-N5-[(4-methylthiazol-2-yl)methyl]-1,1-dioxo-1,2,6-thiadiazinane-3,5-dicarboxamide], the EC50 was in the range of 100 to 10000 nM.

Turning to `CN1C(C(=O)Nc2ccc(F)c(Cl)c2)CC(C(=O)NCc2nccs2)NS1(=O)=O` (centres unmarked) [Compound 684], the EC50 is 100 to 10000 nM.

Regarding `Cc1cn(-c2ccccc2F)nc1CNC(=O)C1CC(C(=O)Nc2ccc(F)c(Cl)c2)N(C)S(=O)(=O)N1` (centres unmarked) [Compound 1142], the EC50 was below 50 nM.

Turning to `CN1C(C(=O)Nc2ccc(F)c(Cl)c2)CC(C(=O)NCc2cnc(-c3ccc(OCCN4CCCCC4)cc3)s2)NS1(=O)=O` (single isomer, unassigned) [Compound 922-ISOMER-A, N3-(3-chloro-4-fluoro-phenyl)-2-methyl-1,1-dioxo-N5-[[2-[4-[2-(1-piperidyl)ethoxy]phenyl]thiazol-5-yl]methyl]-1,2,6-thiadiazinane-3,5-dicarboxamide], the EC50 was 100 to 10000 nM.

On to `CN1C(C(=O)Nc2ccc(F)c(Cl)c2)CC(C(=O)NCc2cc(-c3ccc(F)cc3)nn2C)NS1(=O)=O` (single isomer, unassigned) [1143-ISOMER-A, N3-(3-chloro-4-fluoro-phenyl)-N5-[[5-(4-fluorophenyl)-2-methyl-pyrazol-3-yl]methyl]-2-methyl-1,1-dioxo-1,2,6-thiadiazinane-3,5-dicarboxamide], for which the EC50 fell in the range of 100 to 10000 nM.

Consider `CCc1nc(CNC(=O)C2CC(C(=O)Nc3ccc(F)c(Cl)c3)N(C)S(=O)(=O)N2)cs1` (single isomer, unassigned) [Compound 742-ISOMER-A, N3-(3-chloro-4-fluoro-phenyl)-N5-[(2-ethylthiazol-4-yl)methyl]-2-methyl-1,1-dioxo-1,2,6-thiadiazinane-3,5-dicarboxamide], for which the EC50 was in the range of 100 to 10000 nM.

In the case of `Cc1cccc(CNC(=O)C2CC(C(=O)Nc3ccc(F)c(C#N)c3)N(C)S(=O)(=O)N2)n1` (centres unmarked) [Compound 831], the EC50 is 100 to 10000 nM.

On to `CN1C(C(=O)Nc2ccc(F)c(Cl)c2)CC(C(=O)NCc2cc(-c3ccc(F)cc3)n(C)n2)NS1(=O)=O` (centres unmarked) [Compound 1151], for which the EC50 is below 50 nM.

For `CN1C(C(=O)Nc2ccc(F)c(Cl)c2)CC(C(=O)NCc2cnc(-c3cccnc3)s2)NS1(=O)=O` (single isomer, unassigned) [Compound 911-ISOMER-A, N3-(3-chloro-4-fluoro-phenyl)-2-methyl-1,1-dioxo-N5-[[2-(3-pyridyl)thiazol-5-yl]methyl]-1,2,6-thiadiazinane-3,5-dicarboxamide], the EC50 is 100 to 10000 nM.
